Assay [1] addresses angiotensin II AT1 receptor. Put plainly: Assay A: Angiotensin II Binding Activity (125I-AII displacement, rat uterine membrane preparation). The method, then:
Assay A: Antiotensin II Binding Activity
Compounds of the invention were tested for ability to bind to the smooth muscle angiotensin II receptor using a rat uterine membrane preparation. […] Rat uterine membranes were prepared from fresh tissue. All procedures were carried out at 4° C. Uteri were stripped of fat and homogenized in phosphate-buffered saline at pH 7.4 containing 5 mM EDTA. The homogenate was centrifuged at 1500×g for 20 min., and the supernatant was recentrifuged at 100,000×g for 60 min. The pellet was resuspended in buffer consisting of 2 mM EDTA and 50 mM Tris-HCl (pH 7.5) to a final protein concentration of 4 mg/ml. […] The reaction was initiates by the addition of membrane protein and the mixture was incubated at 25° C. for 60 min. The incubation was terminated with ice-cold 50 mM Tris-HCl (pH 7.5) and the mixture was filtered to separate membrane-bound labelled peptide from the free ligand. The incubation tube and filter were washed with ice-cold buffer. Filters were assayed for radioactivity in a Micromedic gamma counter. Nonspecific binding was defined as binding in the presence of 10 μM of unlabelled AII. Specific binding was calculated as total binding minus nonspecific binding. […] Binding data were analyzed by a nonlinear least-squares curve fitting program.
1Assay A: Angiotensin II Binding Activity

In assay [2] the target is T1, angiotensin II receptor (rabbit aortic rings) (Oryctolagus cuniculus, UniProt P34976).
T1 construct: The thoracic aorta was removed, cleaned of adherent fat and connective tissue and then cut into 3-mm ring segments; from tissue; host or cells: rabbit thoracic aorta rings, endothelium removed
T1 sequence (P34976 1-359): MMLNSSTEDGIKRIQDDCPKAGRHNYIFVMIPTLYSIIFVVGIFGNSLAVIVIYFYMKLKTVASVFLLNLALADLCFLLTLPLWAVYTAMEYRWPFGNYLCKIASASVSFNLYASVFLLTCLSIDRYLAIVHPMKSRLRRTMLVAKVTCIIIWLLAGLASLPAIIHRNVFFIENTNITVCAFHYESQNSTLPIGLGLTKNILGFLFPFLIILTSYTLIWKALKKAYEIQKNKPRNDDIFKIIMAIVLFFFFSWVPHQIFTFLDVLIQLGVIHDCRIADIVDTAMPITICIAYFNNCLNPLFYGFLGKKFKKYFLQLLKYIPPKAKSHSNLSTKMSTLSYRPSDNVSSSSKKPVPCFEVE
In words: Assay B: In vitro Vascular Smooth Muscle Response for AII (rabbit aortic rings, pA2). The format is cell-based. Conditions: two determinations given as a/b. The method, then: Assay B: In vitro Vascular Smooth Muscle-response for AII
The compounds of the invention were tested for antagonist activity in rabbit aortic rings. Male New Zealand white rabbits (2-2.5 kg) were sacrificed using an overdose of pentobarbital and exsanguinated via the carotid arteries. The thoracic aorta was removed, cleaned of adherent fat and connective tissue and then cut into 3-mm ring segments. The endothelium was removed from the rings by gently sliding a rolled-up piece of filter paper into the vessel lumen. The rings were then mounted in a water-jacketed tissue bath, maintained at 37° C., between moveable and fixed ends of a stainless steel wire with the moveable end attached to an FT03 Grass transducer coupled to a Model 7D Grass Polygraph for recording isometric force responses. […] The preparations were equilibrated for one hour before approximately one gram of passive tension was placed on the rings. Angiotensin II concentration-response curves were then recorded (3×10^−10 to 1×10^−5 M). Each concentration of AII was allowed to elicit its maximal contraction, and then AII was washed out repeatedly for 30 minutes before rechallenging with a higher concentration of AII. Aorta rings were exposed to the test antagonist at 10^−5 M for 5 minutes before challenging with AII. Adjacent segments of the same aorta ring were used for all concentration-response curves in the presence or absence of the test antagonist. The effectiveness of the test compound was expressed in terms of pA2 values and were calculated according to H. O. Schild [Br. J. Pharmacol. Chemother., 2, 189-206 (1947)]. The pA2 value is […] which increases the EC50 value for AII by a factor of two. Each test antagonist was evaluated in aorta rings from two rabbits.
2Assay B: In vitro Vascular Smooth Muscle Response

Another assay has as its system pressor response to AII. Put plainly: Assay C: In vivo Intragastric Pressor Assay Response for AII Antagonists. As to conditions: rat. The method, then: Assay C: In vivo Intragastric Pressor Assay Response for All Antagonists
Male Sprague-Dawley rats weighing 225-300 grams were anesthetized with methohexital (30 mg/kg, i.p.) and catheters were implanted into the femoral artery and vein. The catheters were tunneled subcutaneously to exit dorsally, posterior to the head and between the scapulae. The catheters were filled with heparin (1000 units/ml of saline). The rats were returned to their cage and allowed regular rat chow and water ad libitum. After full recovery from surgery (3-4 days), rats were placed in Lucite holders and the arterial line was connected to a pressure transducer. Arterial pressure was recorded on a Gould polygraph (mmHg). Angiotensin II was administered as a 30 ng/kg bolus via the venous catheter delivered in a 50 μl volume with a 0.2 ml saline flush. The pressor response in mm Hg was measured by the difference from pre-injection arterial pressure to the maximum pressure achieved. The AII injection was repeated every 10 minutes until three consecutive injections yielded responses within 4 mmHg of each other. These three responses were then averaged and represented the control response to AII. The test compound was suspended in 0.5% methylcellulose in water and was administered by gavage. The volume administered was 2 ml/kg body weight. The standard dose was 3 mg/kg. Angiotensin II bolus injections were given at 30, 45, 60, 75, 120, 150, and 180 minutes after gavage. The pressor response to AII was measured at each time point. The rats were then returned to their cage for future testing. A minimum of 3 days was allowed between tests. Percent inhibition was calculated for each time point following gavage by the following formula: [(Control Response—Response at time point)/Control Response]×100.
3Assay C: In vivo Pressor Response

For assay [3] the following is noted: hypertensive patients, continued ACE inhibition; cited from earlier work.
Another assay concerns angiotensin II. Conditions: binding experiments, functional assays and in vivo tests; cited from earlier work.
Assay [4] has as its system myocardial fibrosis in animal models. As to conditions: cited from earlier work.

pIC50: −log10 of the molar value. Like-named read-outs stand apart in the source and are kept apart here.

The term pIC50 denotes the negative decadic logarithm of the IC50, by convention in mol/L. The term Kb denotes the affinity of an antagonist, worked out from how it opposes an agonist. `CCCCc1nc(CCCC)n(Cc2ccc(-c3ccccc3-c3nnn[nH]3)cc2)n1` [Compound 3] showed a pIC50 in assay [1] of 8.27. Also, the Kb in assay [2] is 2 nM. In addition, the entries for the “Assay C Duration” value in the assay on pressor response to AII (dose 10 mg/kg) and in the assay with pressor response to AII (dose 30 mg/kg) were greater than 180 min and 200^+ min, respectively.
In the case of `C[C@H](CS)C(=O)N1CCC[C@H]1C(=O)O` [captopril], the plasma aldosterone entry in assay [3] is recorded as “gradual return of plasma aldosterone to baseline levels”.
For `CCCCc1nc(Cl)c(CC(=O)[O-])n1Cc1ccccc1[N+](=O)[O-].[Na+]` [sodium salt of 2-butyl-4-chloro-1-(2-nitrobenzyl)imidazole-5-acetic acid], in the assay on angiotensin II, the “angiotensin II antagonist activity” value is on record as “specific competitive angiotensin II antagonist activity”.
`CCCCc1nc(Cl)c(CC(=O)[O-])n1Cc1ccccc1Cl.[Na+]` [sodium salt of 2-n-butyl-4-chloro-1-(2-chlorobenzyl)imidazole-5-acetic acid]: the “angiotensin II antagonist activity” value in the assay on angiotensin II is reported as “specific competitive angiotensin II antagonist activity”.
In the case of `CC(=O)S[C@@H]1CC2=CC(=O)CC[C@]2(C)[C@H]2CC[C@@]3(C)[C@@H](CC[C@@]34CCC(=O)O4)[C@H]12` [spironolactone, 17-hydroxy-7α-mercapto-3-oxo-17α-pregn-4-ene-21-carboxylic acid γ-lactone acetate], the myocardial fibrosis entry in assay [4] is “prevents myocardial fibrosis in animal models”; in assay [4] (listed as Spironolactone) it was “prevent fibrosis in animal models irrespective of the development of left ventricular hypertrophy and the presence of hypertension”.

The record behind these values is US20040067915A1, “Method to treat cardiofibrosis with a combination of an angiotensin II antagonist and spironolactone” (G.D. Searle & Co., priority 1995, published 2004).
